From PMC2574930 (Cancer, 2008)

Assays:
NCI-H727 cells = test: MTT proliferation assay, NCI-H727; assay type: cell-based, human; conditions: 72 hours incubation, drug applied every 24 hrs, 10^−10 to 10^−6
[1] = system: ERK1/2 phosphorylation in NCI-H727 cells; test: ELISA; assay type: cell-based, human; conditions: NCI-H727, 30 mins
[2] = system: ERK1/2 phosphorylation in KRJ-I cells; test: ELISA; assay type: cell-based, human
[3] = system: Ki67 transcript in NCI-H720 cells; test: Real-time PCR Ki67 transcripts, NCI-H720; assay type: cell-based, human
[4] = system: Ki67 transcript in KRJ-I cells; test: Real-time PCR Ki67 transcripts, KRJ-I; assay type: cell-based, human
[5] = system: p21^WAF1/CIP1 transcript in NCI-H720 cells; test: Real-time PCR p21WAF1/CIP1 transcripts, NCI-H720; assay type: cell-based, human
[6] = system: p21^WAF1/CIP1 transcript in NCI-H727 cells; test: Real-time PCR p21WAF1/CIP1 transcripts, NCI-H727; assay type: cell-based, human; conditions: NCI-H727, 24 hrs
[7] = system: p21^WAF1/CIP1 transcript in KRJ-I cells; test: Real-time PCR p21WAF1/CIP1 transcripts, KRJ-I; assay type: cell-based, human; conditions: IC50 concentration, 24 hrs, p<0.01 vs. control, Mean±SEM, n=4
sst1 = conditions: read-out: sst1 receptor subtype specificity (IC50); human receptor; cited from earlier work
sst2 = conditions: read-out: sst2 receptor subtype specificity (IC50); human receptor; cited from earlier work
sst3 = conditions: read-out: sst3 receptor subtype specificity (IC50); human receptor; cited from earlier work
sst4 = conditions: read-out: sst4 receptor subtype specificity (IC50); human receptor; cited from earlier work
sst5 = conditions: read-out: sst5 receptor subtype specificity (IC50); human receptor; cited from earlier work

For `CC(C)[C@@H]1NC(=O)[C@H](CCCCN)NC(=O)[C@@H](Cc2c[nH]c3ccccc23)NC(=O)[C@H](Cc2ccc(O)cc2)NC(=O)[C@@H](NC(=O)[C@H](N)Cc2ccc3ccccc3c2)CSSC[C@@H](C(=O)N[C@H](C(N)=O)[C@@H](C)O)NC1=O` [Lanreotide], the “Effect on NCI-H727 proliferation” value (NCI-H727 cells) was “No effect”, the “ERK phosphorylation” value [1] was “no effect” and the “Activation of ERK1/2 signaling, vs. control” value ([2]; IC50 concentration, 30 mins, p=0.05 vs. control, Mean±SEM, n=4) was 25±8%. For the same compound, the “Ki67 transcript levels decreased, vs. unstimulated cells” value ([3]; NCI-H720, IC50 concentration, 24 hr, p<0.01, Mean±SEM, n=4) was 45±7%, the “Ki67 transcript down regulated, vs. control” value ([4]; IC50 concentration, 24 hrs, p<0.01 vs. control, Mean±SEM, n=4) was 73±12% and the “p21^WAF1/CIP1 transcript levels increased, vs. control” value ([5]; NCI-H720, IC50 concentration, 24 hr, p<0.01 vs. control, Mean±SEM, n=4) was 140±27%. The “p21^WAF1/CIP1 transcripts” value [6] was “not significantly up-regulated”, the “p21^WAF1/CIP1 transcripts elevated, vs. control” value [7] was 175±21% and the IC50 (sst1) was greater than 1000 nM. The IC50 (sst2) was 0.75 nM, the IC50 (sst3) was 98 nM and the IC50 (sst4) was greater than 1000 nM. The IC50 (sst5) was 12.7 nM.

In the case of `COc1cccc(-c2cc(=O)c3ccccc3o2)c1N` [PD98059], the “Inhibition of lanreotide-activated ERK1/2 signaling by PD98059” value ([2]; PD98059 pre-incubated 10 min prior to lanreotide) is reported as “could be inhibited”, the “Ki67 transcript decrease by lanreotide when inhibited by PD98059” value ([3]; NCI-H720, lanreotide 24 hr with PD98059, p<0.05 vs. lanreotide alone) is reported as 6±2% and the “Inhibition of lanreotide Ki67 down regulation by PD98059” value ([4]; p<0.05 vs. lanreotide alone) is reported as “inhibited”. For the same compound, the “Reversal of lanreotide-induced p21^WAF1/CIP1 increase by PD98059” value ([5]; NCI-H720, p<0.05 vs. lanreotide alone) was “reversible”.

In the case of Somatostatin-14, the IC50 (sst1) is listed as 1.95 nM, the IC50 (sst2) is listed as 0.25 nM and the IC50 (sst3) is listed as 1.2 nM. The IC50 (sst4) was 1.77 nM and the IC50 (sst5) was 1.41 nM.

For Somatostatin-28, the IC50 (sst1) is listed as 1.86 nM, the IC50 (sst2) is listed as 0.31 nM and the IC50 (sst3) is listed as 1.3 nM. For the same compound, the IC50 (sst4) was 5.4 nM and the IC50 (sst5) was 0.4 nM.
